Experimental data as given in US9820983B2, “Immediate release pharmaceutical compositions comprising oxycodone and naloxone” (Purdue Pharma L.P., priority 2009, dated 2017).

Legend:
[1] = Single dose bioavailability study of IR OXN 20/10 vs oxycodone IR capsule 20 mg and OXN PR 20/10 (Targin) in healthy subjects (Example 3); type: in vivo, human; details: oral, from the study treatments
Experimental: The study was an open-label, single-dose, 3-treatment, 3-period, randomised crossover. Each subject received single oral doses of IR OXN tablet 20/10 mg, oxycodone IR capsule 20 mg and OXN PR tablet 20/10 mg (Targin®). Subjects received each of the three treatments according to a random allocation schedule (RAS), with at least a 7-day washout period between each dosing.
Subjects attended a screening visit within 21 days of the first dosing day of Study Period 1. Eligible subjects then checked into the study unit on the day before dosing in each study period. Subjects were administered the appropriate study drug in a fasted state the following morning.
Pharmacokinetic blood samples were taken for 36 hours after administration of study drug in each study period, and subjects were discharged after the 36-hour blood sample.
IR OXN tablet 20/10 mg. The treatment was administered orally, in a fasted state, as follows: […]
Log-transformed data for the analytes oxycodone, noroxycodone, oxymorphone, noroxymorphone, naloxone, 6β-naloxol, naloxone-3-glucuronide and 6β-naloxol-3-glucuronide and the pharmacokinetic parameters AUCt, AUCINF and Cmax were analysed using a mixed effect linear model 18, with fixed terms for treatment and period and a random effect for subject.
Treatment ratios/differences and their associated 90% confidence intervals were calculated from the least square means.

[2] = Single dose study of dose proportionality of IR OXN tablets in healthy subjects (Example 2); type: in vivo, human; details: after IR OXN tablets, particularly with the lower doses
Text: The study was an open-label, single-dose, 4-treatment, 4-period, randomised crossover study in healthy male and female subjects conducted at a single study centre. […] Subjects received each of the four treatments according to a random allocation schedule (RAS), with at least a 7-day washout period between each dosing.
Subjects attended a screening visit within 21 days of the first dosing day of Study Period 1. Eligible subjects then checked into the study unit on the day before dosing in each study period. Subjects were administered the appropriate study drug in a fasted state the following morning. […]
The following pharmacokinetic parameters were calculated from the plasma concentrations of oxycodone, noroxycodone, oxymorphone, noroxymorphone, naloxone, 6β-naloxol, naloxone-3-glucuronide and 6β-naloxol-3-glucuronide: • Area under the plasma concentration-time curve measured from the time of dosing to the last measurable concentration (AUCt) • Area under the plasma concentration-time curve measured from the time of dosing and extrapolated to infinity (AUCinf) • Maximum observed plasma concentration (Cmax) • Time of maximum observed plasma concentration (tmax) • Terminal phase rate constant (LambdaZ) • Terminal phase half-life (t1/2Z) […]
AUCt values were calculated using the linear trapezoidal method. […]

In the case of C=CCN1CC[C@]23c4c5ccc(O)c4O[C@H]2C(=O)CC[C@@]3(O)[C@H]1C5 [Naloxone, naloxone], the bioavailability of naloxone [1] is reported as “very low” and the “plasma concentrations of naloxone” value [2] is reported as “extremely low”.
